Reference: patent US6455250B1, “Endonuclease compositions and methods of use” (The Regents of the University of California, priority 1997, dated 2002)
“Also recorded” adds a separate entry of the source.

Assays:
Endo-SR = molecular target: T1, Endo-SR (Mus musculus, UniProt P56542); experiment: Effect of M^2+ species and EDTA on murine Endo-SR activity (Example 1, FIG. 3B); assay type: biochemical
T1 construct: All nuclease assays were performed with Fraction IV enzyme (see below) as the source for Endo-SR activity, unless otherwise specified; endogenous in cells; host or cells: murine 38B9 pre-B cell line, nuclear extract, chromatographic Fraction IV (BioRex 70, 300 mM NaCl step)
T1 sequence (P56542 20-353): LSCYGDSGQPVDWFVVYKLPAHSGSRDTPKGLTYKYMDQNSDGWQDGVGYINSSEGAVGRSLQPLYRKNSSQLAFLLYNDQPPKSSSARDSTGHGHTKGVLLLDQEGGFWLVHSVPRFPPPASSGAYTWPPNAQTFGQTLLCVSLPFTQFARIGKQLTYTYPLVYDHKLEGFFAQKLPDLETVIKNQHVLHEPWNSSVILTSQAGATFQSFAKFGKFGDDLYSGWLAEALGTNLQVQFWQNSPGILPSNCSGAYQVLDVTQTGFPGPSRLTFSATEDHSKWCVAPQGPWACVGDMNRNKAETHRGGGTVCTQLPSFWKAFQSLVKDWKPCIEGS
Procedure: FIG. 3B. Effect of M^2+ species on Endo-SR activity. Nuclease assays were performed as previously described but with varied concentrations of different M^2+ species (or EDTA) replacing the standard (5 mM Mg^2+) assay condition. Activity values shown are expressed as percentages of an activity detected in a control assay (0 μM) containing no added M^2+ species.
Endonuclease assays were conducted in 10 μl reaction volumes containing 10 mM bis-Tris (pH6.5), 5 mM MgCl2, ˜250 pmoles of an end-labeled (^32P) DNA substrate, 1 μg of calf-thymus DNA, and 1 μl of an active Endo-SR fraction. […] All nuclease assays were performed with Fraction IV enzyme (see below) as the source for Endo-SR activity, unless otherwise specified. Nuclease assays performed for biochemical analysis of Endo-SR activity were conducted as described except for the addition or substitution of the test material. Reactions were incubated at 37° C. for 30 min, then mixed with an equal volume of formamide dye (Ausubel et al., 1987) and heated to 95° C. for 5 min prior to electrophoresis on an appropriate percentage (8-15%) sequencing gel. After electrophoresis, these gels were transferred to Whatman paper, dried, and exposed to film for 12-48 h. All detected cleavage products were compared to adjacent Maxam-Gilbert sequencing reactions, and adjusted one nucleotide 3′ to compensate for the removed base (Ausubel et al., 1987). After autoradiographic analysis, endonuclease activity was assayed by scintillation counting of intact substrate and specific cleavage products excised from the dried gel. End-labeled DNA substrates were prepared according to previously described methods (Hope et al., 1986).

bovine Endo-SR = molecular target: T2, bovine Endo-SR (Bos taurus, UniProt P56541); experiment: Effect of M^2+ cofactors and EDTA on bovine Endo-SR activity (FIG. 2B); assay type: biochemical; conditions: ≦50 μM
T2 construct: Nuclear extracts for enzyme purification were generated from bovine spleen; from tissue; host or cells: bovine spleen nuclear extract, Fraction V (Superose-12)
T2 sequence (P56541 20-365): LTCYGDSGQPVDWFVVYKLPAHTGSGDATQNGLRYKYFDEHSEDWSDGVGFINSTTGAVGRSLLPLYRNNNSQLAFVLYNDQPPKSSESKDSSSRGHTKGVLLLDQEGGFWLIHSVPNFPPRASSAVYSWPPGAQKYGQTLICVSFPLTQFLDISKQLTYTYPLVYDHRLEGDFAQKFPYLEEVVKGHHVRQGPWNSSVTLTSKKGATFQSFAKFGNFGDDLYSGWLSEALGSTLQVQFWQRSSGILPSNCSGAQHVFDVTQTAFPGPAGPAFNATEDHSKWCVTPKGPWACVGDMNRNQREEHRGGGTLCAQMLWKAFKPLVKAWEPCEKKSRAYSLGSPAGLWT
Procedure: (§1) FIG. 2B. Effect of various common divalent metal cation (M^2+) species on Endo-SR activity. Nuclease reaction buffer used in these assays contained no Mg^2+, and nuclease reactions were adjusted to various M or EDTA concentrations. Nuclease assays performed with supplemental M^2+ or EDTA were pre-incubated for 30 min on ice prior to addition of the DNA substrate. Specific endonuclease activity values detected in these assays were normalized against nuclease reactions, which contained no supplemental M^2+ or EDTA, and expressed as percentages of this reaction activity. Bovine and murine enzyme activities are represented by open and closed symbols, respectively.
(§2) Endo-SR activity was assayed in 10 μl reactions containing 50 mM sodium acetate (pH 5.5), ˜150 mM NaCl, 0.5 mM MgCl2, ˜250 fmoles of end-labeled DNA substrate (see below), 1 μg sheared salmon sperm DNA, and 1 μl of a diluted Endo-SR fraction. All reactions performed with bovine Endo-SR used Fraction V material (Table 2). Murine Endo-SR used in these assays was purified essentially as previously described (Lyon et al., 1996). All nuclease assays were incubated at 37° C. for 30 min, then mixed with 10 μl of formamide dye and denatured at 95° C. for 5 min prior to size-fractionation on standard sequencing gels. Endo-SR activity values (fmol/min) were determined by quantitation of the radioactivity present in specific nuclease cleavage products and intact substrate (negative control) excised from the dried gel (Lyon et al., 1996). Nuclease assays used to characterize the activity parameters of murine and bovine Endo-SR were performed essentially as previously described (Lyon et al., 1996).

murine Endo-SR = molecular target: T3, murine Endo-SR (Mus musculus, UniProt P56542); experiment: Effect of M^2+ cofactors and EDTA on murine Endo-SR activity (Example 2, FIG. 2B); assay type: biochemical; conditions: ≦50 μM
T3 construct: Nuclease assays were performed with purified bovine nuclease (Fraction V) and partially purified murine Endo-SR (Lyon et al., 1996); endogenous in cells
T3 sequence (P56542 20-353): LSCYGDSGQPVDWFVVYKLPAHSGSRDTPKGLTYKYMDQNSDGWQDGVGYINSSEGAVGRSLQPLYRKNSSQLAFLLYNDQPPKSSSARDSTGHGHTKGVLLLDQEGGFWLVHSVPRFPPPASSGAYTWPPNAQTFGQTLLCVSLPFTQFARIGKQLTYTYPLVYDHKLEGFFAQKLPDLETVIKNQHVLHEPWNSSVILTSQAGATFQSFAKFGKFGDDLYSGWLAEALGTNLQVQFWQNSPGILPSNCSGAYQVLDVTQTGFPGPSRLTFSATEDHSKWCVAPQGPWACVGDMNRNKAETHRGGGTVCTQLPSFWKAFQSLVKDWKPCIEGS
Procedure: as §1, §2

switch recombination = conditions: without demonstrably affecting cell proliferation or CH gene transcription; Loh et al., 1994a, 1995; cited from earlier work
[1] = molecular target: the molecule itself; experiment: native size exclusion chromatography (~35 000) compared with SDS-PAGE (Mr ~32 000)

[Zn+2] [Zn^2+]
inhibition of Endo-SR activity (Endo-SR; 50 μM): ~50%
inhibition of Endo-SR activity (Endo-SR; 500 μM): ~95%
effect on nuclease activity at low concentrations (bovine Endo-SR): significant degree of enzyme inhibition
effect on nuclease activity at low concentrations (murine Endo-SR): significant degree of enzyme inhibition

[Ca+2] [Ca^2+]
effect on Endo-SR activity (Endo-SR; 500 μM): significantly enhanced

CCCc1c2oc(C(=O)O)cc(=O)c2cc2c(=O)cc(C(=O)O)n(CC)c12 [nedocromil sodium]
effect on switch rearrangement (switch recombination): dramatically repress switch rearrangement

O=C([O-])c1cc(=O)c2c(OCC(O)COc3cccc4oc(C(=O)[O-])cc(=O)c34)cccc2o1.[Na+].[Na+] [disodium cromoglycolate]
effect on switch rearrangement (switch recombination): dramatically repress switch rearrangement

O=C(O)CN(CCN(CC(=O)O)CC(=O)O)CC(=O)O [EDTA]
inhibition of Endo-SR activity (Endo-SR; 5 mM): ~40%
effect on Endo-SR activity (Endo-SR; 50 mM): completely inhibited; also recorded: complete inhibition
effect on nuclease activity at low concentrations (bovine Endo-SR): relatively resistant
effect on nuclease activity at low concentrations (murine Endo-SR): relatively resistant

[Mg+2] [Mg^2+]
effect on Endo-SR activity (Endo-SR; 500 μM): significantly enhanced; also recorded: maximal activity
effect on nuclease activity at low concentrations (bovine Endo-SR): significant degree of enzyme inhibition
effect on nuclease activity at low concentrations (murine Endo-SR): significant degree of enzyme inhibition

B1: purified bovine Endo-SR (Fraction V, from bovine spleen nuclear extract) (enzyme, UniProt P56541 20-365, looked up)
chain: LTCYGDSGQPVDWFVVYKLPAHTGSGDATQNGLRYKYFDEHSEDWSDGVGFINSTTGAVGRSLLPLYRNNNSQLAFVLYNDQPPKSSESKDSSSRGHTKGVLLLDQEGGFWLIHSVPNFPPRASSAVYSWPPGAQKYGQTLICVSFPLTQFLDISKQLTYTYPLVYDHRLEGDFAQKFPYLEEVVKGHHVRQGPWNSSVTLTSKKGATFQSFAKFGNFGDDLYSGWLSEALGSTLQVQFWQRSSGILPSNCSGAQHVFDVTQTAFPGPAGPAFNATEDHSKWCVTPKGPWACVGDMNRNQREEHRGGGTLCAQMLWKAFKPLVKAWEPCEKKSRAYSLGSPAGLWT
notes: Native enzyme purified to homogeneity; also called bovine Endo-SR nuclease; Mr ~32 000 protein species
binding result [1]: no binding
